# Laboratory results reported in ChEMBL document CHEMBL1201862, “PubChem BioAssay data set” (2004).
#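 All cell lines were grown in 96-well plates and treated with compound for 48 hours. Abbreviation: GI50, concentration required for 50% inhibition of growth.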 The source made the active and inactive calls. No stated cut-off is given here; in the data, active = GI50 up to about 1.1 µM and inactive = higher.
# Key:
# Assay in all cases: inhibition of tumour cell growth, NCI panel, 48 h
# NCI-H23 = tested on: NCI-H23
# ACHN = tested on: ACHN
# HOP-92 = tested on: HOP-92
# EKVX = tested on: EKVX
# SF-295 = tested on: SF-295
# LOX IMVI = tested on: LOX IMVI
# RXF 393 = tested on: RXF 393
# Malme-3M = tested on: Malme-3M
# DLD-1 = tested on: DLD-1
# A549 = tested on: A549
# M14 = tested on: M14
# SK-MEL-5 = tested on: SK-MEL-5
# SF-268 = tested on: SF-268
# OVCAR-8 = tested on: OVCAR-8
# UO-31 = tested on: UO-31
# UACC-62 = tested on: UACC-62
# 786-0 = tested on: 786-0
# OVCAR-5 = tested on: OVCAR-5
# HCT-15 = tested on: HCT-15
# UACC-257 = tested on: UACC-257
# SK-MEL-28 = tested on: SK-MEL-28
# LXFL 529 = tested on: LXFL 529
# U-251 = tested on: U-251
# HCC 2998 = tested on: HCC 2998
# NCI-H460 = tested on: NCI-H460
# SK-MEL-2 = tested on: SK-MEL-2
# DMS-273 = tested on: DMS-273
# COLO 205 = tested on: COLO 205
# RPMI-8226 = tested on: RPMI-8226
# IGROV-1 = tested on: IGROV-1
# NCI-H522 = tested on: NCI-H522
# KM-20L2 = tested on: KM-20L2
# DMS-114 = tested on: DMS-114
# HOP-18 = tested on: HOP-18
# A498 = tested on: A498
# XF498 = tested on: XF498
# HL-60 = tested on: HL-60
# KM12 = tested on: KM12
# TK-10 = tested on: TK-10
# CCRF-CEM = tested on: CCRF-CEM
# SN12C = tested on: SN12C
# OVCAR-3 = tested on: OVCAR-3
# HOP-62 = tested on: HOP-62
# SF-539 = tested on: SF-539
# SK-OV-3 = tested on: SK-OV-3
# SR = tested on: SR
# K562 = tested on: K562
# M19-MEL = tested on: M19-MEL
# SW-620 = tested on: SW-620
# MOLT-4 = tested on: MOLT-4
# SNB-19 = tested on: SNB-19
# SNB-78 = tested on: SNB-78
# HCT-116 = tested on: HCT-116
# SNB-75 = tested on: SNB-75
# OVCAR-4 = tested on: OVCAR-4
# NCI-H226 = tested on: NCI-H226
# HT-29 = tested on: HT-29
# CAKI-1 = tested on: CAKI-1
smiles,measurement,setting,value
O=Cn1c2ccccc2c2ccccc21,GI50,NCI-H23,> 100 µM (inactive)
same,GI50,ACHN,> 100 µM (inactive)
same,GI50,HOP-92,> 100 µM (inactive)
same,GI50,EKVX,> 100 µM (inactive)
same,GI50,SF-295,> 100 µM (inactive)
same,GI50,LOX IMVI,> 100 µM (inactive)
same,GI50,RXF 393,> 100 µM (inactive)
same,GI50,Malme-3M,> 100 µM (inactive)
same,GI50,DLD-1,> 100 µM (inactive)
same,GI50,A549,> 100 µM (inactive)
same,GI50,M14,> 100 µM (inactive)
same,GI50,SK-MEL-5,> 100 µM (inactive)
same,GI50,SF-268,> 100 µM (inactive)
same,GI50,OVCAR-8,> 100 µM (inactive)
same,GI50,UO-31,> 100 µM (inactive)
same,GI50,UACC-62,> 100 µM (inactive)
same,GI50,786-0,> 100 µM (inactive)
same,GI50,OVCAR-5,> 100 µM (inactive)
same,GI50,HCT-15,> 100 µM
same,GI50,UACC-257,> 100 µM (inactive)
same,GI50,SK-MEL-28,> 100 µM (inactive)
same,GI50,LXFL 529,> 100 µM (inactive)
same,GI50,U-251,> 100 µM (inactive)
same,GI50,HCC 2998,> 100 µM (inactive)
same,GI50,NCI-H460,> 100 µM (inactive)
same,GI50,SK-MEL-2,> 100 µM (inactive)
same,GI50,DMS-273,> 100 µM (inactive)
same,GI50,COLO 205,> 100 µM (inactive)
same,GI50,RPMI-8226,> 100 µM (inactive)
same,GI50,IGROV-1,> 100 µM (inactive)
same,GI50,NCI-H522,> 100 µM (inactive)
same,GI50,KM-20L2,> 100 µM (inactive)
same,GI50,DMS-114,> 100 µM (inactive)
same,GI50,HOP-18,9.64 µM (inactive)
same,GI50,A498,> 100 µM (inactive)
same,GI50,XF498,36.1 µM (inactive)
same,GI50,HL-60,> 100 µM (inactive)
same,GI50,KM12,> 100 µM (inactive)
same,GI50,TK-10,> 100 µM (inactive)
same,GI50,CCRF-CEM,> 100 µM (inactive)
same,GI50,SN12C,> 100 µM (inactive)
same,GI50,OVCAR-3,> 100 µM (inactive)
same,GI50,HOP-62,> 100 µM (inactive)
same,GI50,SF-539,> 100 µM (inactive)
same,GI50,SK-OV-3,> 100 µM (inactive)
same,GI50,SR,> 100 µM (inactive)
same,GI50,K562,> 100 µM (inactive)
same,GI50,M19-MEL,> 100 µM (inactive)
same,GI50,SW-620,> 100 µM (inactive)
same,GI50,MOLT-4,> 100 µM (inactive)
same,GI50,SNB-19,> 100 µM (inactive)
same,GI50,SNB-78,> 100 µM (inactive)
same,GI50,HCT-116,> 100 µM (inactive)
O=C(NCc1ccccc1)c1cc2ccc(O)c(O)c2cn1,GI50,SNB-75,17.8 µM (inactive)
same,GI50,NCI-H23,12.1 µM (inactive)
same,GI50,ACHN,15.5 µM (inactive)
same,GI50,HOP-92,19.1 µM (inactive)
same,GI50,EKVX,> 100 µM (inactive)
same,GI50,SF-295,16.9 µM (inactive)
same,GI50,LOX IMVI,3.82 µM (inactive)
same,GI50,OVCAR-4,16.6 µM (inactive)
same,GI50,RXF 393,16.6 µM (inactive)
same,GI50,NCI-H226,40 µM (inactive)
same,GI50,Malme-3M,16.7 µM (inactive)
same,GI50,DLD-1,18.5 µM (inactive)
same,GI50,A549,38.5 µM (inactive)
same,GI50,M14,5.21 µM (inactive)
same,GI50,SK-MEL-5,11.1 µM (inactive)
same,GI50,SF-268,15.1 µM (inactive)
same,GI50,OVCAR-8,11.2 µM (inactive)
same,GI50,UO-31,18.1 µM (inactive)
same,GI50,UACC-62,18.5 µM (inactive)
same,GI50,786-0,18 µM (inactive)
same,GI50,OVCAR-5,26 µM (inactive)
same,GI50,HCT-15,26.7 µM
same,GI50,HT-29,44.1 µM (inactive)
same,GI50,UACC-257,15.6 µM (inactive)
same,GI50,SK-MEL-28,16.4 µM (inactive)
same,GI50,LXFL 529,16.9 µM (inactive)
same,GI50,U-251,23.3 µM (inactive)
same,GI50,CAKI-1,17.2 µM (inactive)
same,GI50,HCC 2998,> 100 µM (inactive)
same,GI50,NCI-H460,21.7 µM (inactive)
same,GI50,SK-MEL-2,12.4 µM (inactive)
same,GI50,DMS-273,17.4 µM (inactive)
same,GI50,COLO 205,32.1 µM (inactive)
same,GI50,RPMI-8226,19.1 µM (inactive)
same,GI50,IGROV-1,23.7 µM (inactive)
same,GI50,NCI-H522,16.6 µM (inactive)
same,GI50,KM-20L2,> 100 µM (inactive)
same,GI50,DMS-114,12.8 µM (inactive)
same,GI50,HOP-18,20.7 µM (inactive)
same,GI50,A498,> 100 µM (inactive)
same,GI50,XF498,17.4 µM (inactive)
same,GI50,HL-60,18.8 µM (inactive)
same,GI50,KM12,33.2 µM (inactive)
same,GI50,TK-10,> 100 µM (inactive)
same,GI50,CCRF-CEM,32.1 µM (inactive)
same,GI50,SN12C,17.6 µM (inactive)
same,GI50,OVCAR-3,18.2 µM (inactive)
same,GI50,HOP-62,21.3 µM (inactive)
same,GI50,SF-539,18.2 µM (inactive)
same,GI50,SK-OV-3,> 100 µM (inactive)
same,GI50,SR,32.6 µM (inactive)
same,GI50,K562,33.8 µM (inactive)
same,GI50,M19-MEL,1.8 µM (inactive)
same,GI50,SW-620,21.4 µM (inactive)
same,GI50,SNB-19,35.4 µM (inactive)
same,GI50,SNB-78,18.1 µM (inactive)
same,GI50,HCT-116,17.7 µM (inactive)
COc1ccc(/C=N/NS(=O)(=O)c2ccccc2)cc1,GI50,SNB-75,> 100 µM (inactive)
same,GI50,NCI-H23,> 100 µM (inactive)
same,GI50,ACHN,> 100 µM (inactive)
same,GI50,HOP-92,> 100 µM (inactive)
same,GI50,EKVX,> 100 µM (inactive)
same,GI50,SF-295,93.5 µM (inactive)
same,GI50,LOX IMVI,> 100 µM (inactive)
same,GI50,OVCAR-4,> 100 µM (inactive)
same,GI50,RXF 393,> 100 µM (inactive)
same,GI50,NCI-H226,> 100 µM (inactive)
same,GI50,Malme-3M,> 100 µM (inactive)
same,GI50,DLD-1,> 100 µM (inactive)
same,GI50,A549,> 100 µM (inactive)
same,GI50,M14,> 100 µM (inactive)
same,GI50,SK-MEL-5,> 100 µM (inactive)
same,GI50,SF-268,> 100 µM (inactive)
same,GI50,OVCAR-8,> 100 µM (inactive)
same,GI50,UO-31,> 100 µM (inactive)
same,GI50,UACC-62,> 100 µM (inactive)
same,GI50,786-0,> 100 µM (inactive)
same,GI50,OVCAR-5,> 100 µM (inactive)
same,GI50,HCT-15,> 100 µM
same,GI50,HT-29,> 100 µM (inactive)
same,GI50,UACC-257,> 100 µM (inactive)
same,GI50,SK-MEL-28,> 100 µM (inactive)
same,GI50,LXFL 529,> 100 µM (inactive)
same,GI50,U-251,> 100 µM (inactive)
same,GI50,CAKI-1,> 100 µM (inactive)
same,GI50,HCC 2998,> 100 µM (inactive)
same,GI50,NCI-H460,> 100 µM (inactive)
same,GI50,SK-MEL-2,> 100 µM (inactive)
same,GI50,DMS-273,> 100 µM (inactive)
same,GI50,COLO 205,> 100 µM (inactive)
same,GI50,RPMI-8226,> 100 µM (inactive)
same,GI50,IGROV-1,> 100 µM (inactive)
same,GI50,KM-20L2,> 100 µM (inactive)
same,GI50,DMS-114,63.1 µM (inactive)
same,GI50,HOP-18,> 100 µM (inactive)
same,GI50,A498,> 100 µM (inactive)
same,GI50,XF498,> 100 µM (inactive)
same,GI50,HL-60,> 100 µM (inactive)
same,GI50,KM12,> 100 µM (inactive)
same,GI50,TK-10,> 100 µM (inactive)
same,GI50,CCRF-CEM,> 100 µM (inactive)
same,GI50,SN12C,> 100 µM (inactive)
same,GI50,OVCAR-3,> 100 µM (inactive)
same,GI50,HOP-62,> 100 µM (inactive)
same,GI50,SF-539,> 100 µM (inactive)
same,GI50,SK-OV-3,> 100 µM (inactive)
same,GI50,SR,> 100 µM (inactive)
same,GI50,K562,> 100 µM (inactive)
same,GI50,M19-MEL,> 100 µM (inactive)
same,GI50,SW-620,> 100 µM (inactive)
same,GI50,MOLT-4,> 100 µM (inactive)
same,GI50,SNB-78,> 100 µM (inactive)
same,GI50,HCT-116,> 100 µM (inactive)
